Experimental data taken from publication PMC10740956, “A Multitarget Approach against Neuroinflammation: Alkyl Substituted Coumarins as Inhibitors of Enzymes Involved in Neurodegeneration” (Antioxidants, 2023).
Several values for one entry are separate records, joined by “and”; a condition that tells them apart may be missing. Identical values can stand only once. Entries after “also recorded” stand apart in the source; their conditions may differ.

Target: hCA IX (Homo sapiens, UniProt Q16790)
Assay: stopped flow CO2 hydrase assay, hCA IX
Type: biochemical
Details: mean of 3 different assays

SMILES	Ki
CC#CCOc1ccc2ccc(=O)oc2c1 [Compound 6, 7-(But-2-yn-1-yloxy)-2H-chromen-2-one]	0.0093 µM
CCC#CCOc1ccc2ccc(=O)oc2c1 [Compound 7, 7-(Pent-2-yn-1-yloxy)-2H-chromen-2-one]	0.013 µM
C#CCCCOc1cc(=O)oc2ccccc12 [Compound 1, 4-(Pent-4-yn-1-yloxy)-2H-chromen-2-one]	0.0172 µM

Test system: Interleukin-6 secretion from rat astrocytes pre-stimulated with LPS
Assay: IL-6 secretion by ELISA in LPS pre-stimulated astrocytes
Type: cell-based
Details: 24 h, compared to LPS alone
Protocol: (§1) Cells were seeded (8 × 10^3/well) and were left to adhere for 24 h in 96-well plates (Falcon®, Corning Incorporated, NY, USA). The medium was removed, incubating the cell monolayer in the presence of increasing concentrations of DEP, AAZ, and test compounds (0–150 µM) for 24–72 h. In a second set of experiments, cells were pre-incubated in the presence of 0.1 µg/mL LPS (lipopolysaccharide from E. coli, purchased from Merck, Darmstadt, Germany) for 20 h and further exposed to DEP, AAZ, and test compounds in the same experimental conditions.
The amounts (pg/mL) of interleukin-6 (IL-6) were analyzed in cell supernatants using an ELISA kit (Enzo Life Sciences Inc., Lausen, Switzerland) following the manufacturer’s instructions. Absorbance was read at 450 nm and cytokine concentration was determined. Data obtained were normalized on MTT optical densities.

SMILES	IL-6 secretion
C#CCOc1ccc2ccc(=O)oc2c1 [Compound 5, 7-(Prop-2-ynyloxy)-2H-chromen-2-one]	had an effect on IL-6 release
CC(=O)Nc1nnc(S(N)(=O)=O)s1 [AAZ, acetazolamide, reference compound]	the highest concentrations of AAZ are capable of decreasing IL-6 secretion in a significant manner
C#CCN(C)C(C)Cc1ccccc1 (stereo not drawn) [DEP, deprenyl, reference compound]	increases the amount of IL-6 at the highest concentration tested

Target: T1, hMAO-B (Homo sapiens, UniProt P27338)
T1 construct: purchased Sigma-Aldrich
T1 sequence (P27338 1-520): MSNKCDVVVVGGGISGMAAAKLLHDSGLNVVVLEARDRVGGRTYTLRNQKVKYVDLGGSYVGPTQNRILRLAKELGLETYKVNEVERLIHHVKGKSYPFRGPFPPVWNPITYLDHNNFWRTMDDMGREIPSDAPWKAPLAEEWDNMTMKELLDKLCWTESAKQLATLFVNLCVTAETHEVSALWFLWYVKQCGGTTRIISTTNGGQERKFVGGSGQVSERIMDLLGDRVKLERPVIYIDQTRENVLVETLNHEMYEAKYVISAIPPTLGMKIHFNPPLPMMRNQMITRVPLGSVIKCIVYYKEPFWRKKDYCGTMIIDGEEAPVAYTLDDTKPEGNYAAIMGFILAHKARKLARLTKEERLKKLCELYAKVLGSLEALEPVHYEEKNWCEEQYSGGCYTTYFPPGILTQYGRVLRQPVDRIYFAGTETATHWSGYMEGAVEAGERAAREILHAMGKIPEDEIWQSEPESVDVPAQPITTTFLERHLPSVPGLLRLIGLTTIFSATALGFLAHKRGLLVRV
Assay: hMAO-B inhibition, recombinant enzyme, kynuramine substrate, fluorescence
Type: biochemical
Details: IC50 hMAO-A/IC50 hMAO-B

SMILES	SI (selectivity index for hMAO-B over hMAO-A)
CC#CCOc1ccc2ccc(=O)oc2c1 [Compound 6, 7-(But-2-yn-1-yloxy)-2H-chromen-2-one]	85.3
C#CCCCOc1cc(=O)oc2ccccc12 [Compound 1, 4-(Pent-4-yn-1-yloxy)-2H-chromen-2-one]	<0.51

Same assay, conditions: mean ± SD of triplicate determinations

SMILES	IC50
CC#CCOc1ccc2ccc(=O)oc2c1 [Compound 6, 7-(But-2-yn-1-yloxy)-2H-chromen-2-one]	0.25 ± 0.017 µM
C#CCOc1ccc2ccc(=O)oc2c1 [Compound 5, 7-(Prop-2-ynyloxy)-2H-chromen-2-one]	5.79 ± 0.26 µM
CCC#CCOc1ccc2ccc(=O)oc2c1 [Compound 7, 7-(Pent-2-yn-1-yloxy)-2H-chromen-2-one]	0.008 ± 0.00062 µM
C#CCCCOc1cc(=O)oc2ccccc12 [Compound 1, 4-(Pent-4-yn-1-yloxy)-2H-chromen-2-one]	> 100 µM

Target: T2, AChE (electric eel) (Electrophorus electricus, UniProt O42275)
T2 construct: from tissue
T2 sequence (O42275 24-633): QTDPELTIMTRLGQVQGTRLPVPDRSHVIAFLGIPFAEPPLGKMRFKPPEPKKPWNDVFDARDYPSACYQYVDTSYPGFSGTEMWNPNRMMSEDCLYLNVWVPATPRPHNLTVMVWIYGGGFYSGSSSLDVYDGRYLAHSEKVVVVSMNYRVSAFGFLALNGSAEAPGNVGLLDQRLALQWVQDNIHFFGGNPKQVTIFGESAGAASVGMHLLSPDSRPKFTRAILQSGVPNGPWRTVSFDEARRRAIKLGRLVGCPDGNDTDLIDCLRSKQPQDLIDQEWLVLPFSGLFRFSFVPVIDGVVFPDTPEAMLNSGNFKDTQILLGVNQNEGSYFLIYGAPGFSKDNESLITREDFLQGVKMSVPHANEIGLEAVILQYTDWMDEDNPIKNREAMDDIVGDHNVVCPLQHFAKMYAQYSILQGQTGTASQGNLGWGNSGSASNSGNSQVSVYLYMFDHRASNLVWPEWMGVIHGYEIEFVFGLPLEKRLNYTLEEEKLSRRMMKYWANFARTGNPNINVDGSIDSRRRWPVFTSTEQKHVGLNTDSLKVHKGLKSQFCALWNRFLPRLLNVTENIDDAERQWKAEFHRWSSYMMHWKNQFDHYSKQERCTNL
Assay: biochemical
Details: mean ± SD of triplicate determinations

SMILES	IC50
CC#CCOc1ccc2ccc(=O)oc2c1 [Compound 6, 7-(But-2-yn-1-yloxy)-2H-chromen-2-one]	> 100 µM
C#CCOc1ccc2ccc(=O)oc2c1 [Compound 5, 7-(Prop-2-ynyloxy)-2H-chromen-2-one]	> 100 µM
C#CCCCOc1cc(=O)oc2ccccc12 [Compound 1, 4-(Pent-4-yn-1-yloxy)-2H-chromen-2-one]	> 100 µM

Same assay, conditions: read-out: inhibition of AChE at 100 µM, 100 µM

SMILES	inhibition at 100 µM
CCC#CCOc1ccc2ccc(=O)oc2c1 [Compound 7, 7-(Pent-2-yn-1-yloxy)-2H-chromen-2-one]	50%

Target: T3, hMAO-A (Homo sapiens, UniProt P21397)
T3 construct: purchased Sigma-Aldrich
T3 sequence (P21397 1-527): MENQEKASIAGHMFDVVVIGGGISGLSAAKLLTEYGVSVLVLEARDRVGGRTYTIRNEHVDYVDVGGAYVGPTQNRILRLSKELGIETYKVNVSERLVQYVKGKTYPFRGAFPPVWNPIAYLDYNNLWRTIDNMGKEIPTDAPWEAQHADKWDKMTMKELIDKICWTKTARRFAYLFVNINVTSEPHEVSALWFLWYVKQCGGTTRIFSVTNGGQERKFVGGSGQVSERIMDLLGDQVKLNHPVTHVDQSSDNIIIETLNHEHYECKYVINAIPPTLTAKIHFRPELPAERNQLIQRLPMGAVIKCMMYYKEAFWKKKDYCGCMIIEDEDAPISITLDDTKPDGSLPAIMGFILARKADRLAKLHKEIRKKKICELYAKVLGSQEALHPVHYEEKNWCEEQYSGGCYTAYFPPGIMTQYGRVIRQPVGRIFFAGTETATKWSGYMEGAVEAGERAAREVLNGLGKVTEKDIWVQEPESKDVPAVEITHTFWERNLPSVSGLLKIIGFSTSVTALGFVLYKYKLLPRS
Assay: hMAO-A inhibition, recombinant enzyme, kynuramine substrate, fluorescence
Type: biochemical
Details: mean ± SD of triplicate determinations

SMILES	IC50
CC#CCOc1ccc2ccc(=O)oc2c1 [Compound 6, 7-(But-2-yn-1-yloxy)-2H-chromen-2-one]	21.3 ± 0.77 µM
CCC#CCOc1ccc2ccc(=O)oc2c1 [Compound 7, 7-(Pent-2-yn-1-yloxy)-2H-chromen-2-one]	11.2 ± 0.39 µM
C#CCCCOc1cc(=O)oc2ccccc12 [Compound 1, 4-(Pent-4-yn-1-yloxy)-2H-chromen-2-one]	> 10 µM and 51.2 µM

Target: T4, BuChE (equine serum) (Equus caballus, UniProt P81908)
T4 construct: from tissue; host or cells: equine serum
T4 sequence (P81908 whole entry): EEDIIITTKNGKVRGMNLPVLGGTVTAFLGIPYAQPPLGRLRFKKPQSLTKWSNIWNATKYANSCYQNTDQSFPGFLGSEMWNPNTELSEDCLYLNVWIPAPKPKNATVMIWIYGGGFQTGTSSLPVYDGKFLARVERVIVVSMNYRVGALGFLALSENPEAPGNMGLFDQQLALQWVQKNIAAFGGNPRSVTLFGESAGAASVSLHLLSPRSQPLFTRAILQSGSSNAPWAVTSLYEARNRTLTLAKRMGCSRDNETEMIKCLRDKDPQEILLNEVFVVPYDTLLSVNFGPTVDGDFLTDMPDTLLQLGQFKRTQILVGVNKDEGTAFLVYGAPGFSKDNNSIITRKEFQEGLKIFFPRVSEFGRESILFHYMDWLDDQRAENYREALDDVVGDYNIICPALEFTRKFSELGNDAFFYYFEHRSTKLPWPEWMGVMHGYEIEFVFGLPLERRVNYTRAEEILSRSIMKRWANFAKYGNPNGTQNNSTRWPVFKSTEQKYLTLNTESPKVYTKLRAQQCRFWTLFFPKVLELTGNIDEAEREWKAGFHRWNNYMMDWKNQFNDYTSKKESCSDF
Assay: biochemical
Type: biochemical
Details: mean ± SD of triplicate determinations

SMILES	IC50
CC#CCOc1ccc2ccc(=O)oc2c1 [Compound 6, 7-(But-2-yn-1-yloxy)-2H-chromen-2-one]	> 100 µM
C#CCOc1ccc2ccc(=O)oc2c1 [Compound 5, 7-(Prop-2-ynyloxy)-2H-chromen-2-one]	> 100 µM
CCC#CCOc1ccc2ccc(=O)oc2c1 [Compound 7, 7-(Pent-2-yn-1-yloxy)-2H-chromen-2-one]	59 ± 1 µM
C#CCCCOc1cc(=O)oc2ccccc12 [Compound 1, 4-(Pent-4-yn-1-yloxy)-2H-chromen-2-one]	33 ± 1 µM

Target: hCA II (Homo sapiens, UniProt P00918)
Assay: stopped flow CO2 hydrase assay, hCA II
Type: biochemical
Details: mean of 3 different assays

SMILES	Ki
CC#CCOc1ccc2ccc(=O)oc2c1 [Compound 6, 7-(But-2-yn-1-yloxy)-2H-chromen-2-one]	> 10 µM
C#CCOc1ccc2ccc(=O)oc2c1 [Compound 5, 7-(Prop-2-ynyloxy)-2H-chromen-2-one]	> 10 µM
CCC#CCOc1ccc2ccc(=O)oc2c1 [Compound 7, 7-(Pent-2-yn-1-yloxy)-2H-chromen-2-one]	> 10 µM
C#CCCCOc1cc(=O)oc2ccccc12 [Compound 1, 4-(Pent-4-yn-1-yloxy)-2H-chromen-2-one]	> 10 µM

Target: hCA XII (Homo sapiens, UniProt O43570)
Sequence (O43570 25-354): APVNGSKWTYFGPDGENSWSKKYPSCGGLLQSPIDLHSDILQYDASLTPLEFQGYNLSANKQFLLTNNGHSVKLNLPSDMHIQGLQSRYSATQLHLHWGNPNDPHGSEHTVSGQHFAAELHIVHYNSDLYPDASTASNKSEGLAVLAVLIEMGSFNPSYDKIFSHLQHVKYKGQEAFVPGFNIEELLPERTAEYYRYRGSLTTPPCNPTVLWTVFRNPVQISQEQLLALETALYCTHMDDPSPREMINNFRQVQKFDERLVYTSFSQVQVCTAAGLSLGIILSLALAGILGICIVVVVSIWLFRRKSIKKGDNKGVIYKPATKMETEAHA
Assay: stopped flow CO2 hydrase assay, hCA XII
Type: biochemical
Details: not given

SMILES	Ki
CCC#CCOc1ccc2ccc(=O)oc2c1 [Compound 7, 7-(Pent-2-yn-1-yloxy)-2H-chromen-2-one]	0.0068 µM

Same assay, conditions: mean of 3 different assays

SMILES	Ki
CC#CCOc1ccc2ccc(=O)oc2c1 [Compound 6, 7-(But-2-yn-1-yloxy)-2H-chromen-2-one]	0.0068 µM
C#CCOc1ccc2ccc(=O)oc2c1 [Compound 5, 7-(Prop-2-ynyloxy)-2H-chromen-2-one]	0.73 µM
C#CCCCOc1cc(=O)oc2ccccc12 [Compound 1, 4-(Pent-4-yn-1-yloxy)-2H-chromen-2-one]	0.0048 µM

Target: hCA I (Homo sapiens, UniProt P00915)
Sequence (P00915 whole entry): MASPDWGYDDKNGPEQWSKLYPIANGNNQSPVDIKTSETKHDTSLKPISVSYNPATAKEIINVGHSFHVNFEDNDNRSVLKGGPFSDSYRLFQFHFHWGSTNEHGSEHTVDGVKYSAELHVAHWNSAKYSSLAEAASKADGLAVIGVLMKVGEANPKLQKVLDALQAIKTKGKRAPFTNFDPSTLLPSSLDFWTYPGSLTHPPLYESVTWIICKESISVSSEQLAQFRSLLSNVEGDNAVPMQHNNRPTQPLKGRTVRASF
Assay: stopped flow CO2 hydrase assay, hCA I
Type: biochemical
Details: mean of 3 different assays

SMILES	Ki
CC#CCOc1ccc2ccc(=O)oc2c1 [Compound 6, 7-(But-2-yn-1-yloxy)-2H-chromen-2-one]	> 10 µM
C#CCOc1ccc2ccc(=O)oc2c1 [Compound 5, 7-(Prop-2-ynyloxy)-2H-chromen-2-one]	> 10 µM
CCC#CCOc1ccc2ccc(=O)oc2c1 [Compound 7, 7-(Pent-2-yn-1-yloxy)-2H-chromen-2-one]	> 10 µM
C#CCCCOc1cc(=O)oc2ccccc12 [Compound 1, 4-(Pent-4-yn-1-yloxy)-2H-chromen-2-one]	6.26 µM

Test system: CTX/TNA2 rat astrocytes
Assay: Cell metabolic activity assay (MTT), non-inflammatory conditions
Type: cell-based
Details: 0-150 µM, 24-72 h

SMILES	cell metabolic activity (MTT), biocompatibility
CC#CCOc1ccc2ccc(=O)oc2c1 [Compound 6, 7-(But-2-yn-1-yloxy)-2H-chromen-2-one]	cell metabolic activity significantly decreases at all the concentrations tested at 48 h
C#CCOc1ccc2ccc(=O)oc2c1 [Compound 5, 7-(Prop-2-ynyloxy)-2H-chromen-2-one]	cell metabolic activity significantly decreases at all the concentrations tested at 48 h
C#CCCCOc1cc(=O)oc2ccccc12 [Compound 1, 4-(Pent-4-yn-1-yloxy)-2H-chromen-2-one]	good biocompatibility, with a cell metabolic activity significantly decreased only after 48 h and at the highest concentration tested (150 µM)

Target: hCA VII (Homo sapiens, UniProt P43166)
Sequence (P43166 whole entry): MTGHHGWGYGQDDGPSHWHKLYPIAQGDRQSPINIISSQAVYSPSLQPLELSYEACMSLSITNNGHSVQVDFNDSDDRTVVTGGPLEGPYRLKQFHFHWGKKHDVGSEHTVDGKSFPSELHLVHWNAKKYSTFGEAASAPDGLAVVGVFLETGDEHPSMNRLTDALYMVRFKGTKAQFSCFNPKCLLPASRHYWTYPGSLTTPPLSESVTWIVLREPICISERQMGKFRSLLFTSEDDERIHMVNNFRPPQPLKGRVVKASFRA
Assay: stopped flow CO2 hydrase assay, hCA VII
Type: biochemical
Details: mean of 3 different assays

SMILES	Ki
CC#CCOc1ccc2ccc(=O)oc2c1 [Compound 6, 7-(But-2-yn-1-yloxy)-2H-chromen-2-one]	0.0682 µM
C#CCOc1ccc2ccc(=O)oc2c1 [Compound 5, 7-(Prop-2-ynyloxy)-2H-chromen-2-one]	0.0519 µM
CCC#CCOc1ccc2ccc(=O)oc2c1 [Compound 7, 7-(Pent-2-yn-1-yloxy)-2H-chromen-2-one]	0.0635 µM
C#CCCCOc1cc(=O)oc2ccccc12 [Compound 1, 4-(Pent-4-yn-1-yloxy)-2H-chromen-2-one]	0.0598 µM

Test system: H2O2 generation in rat astrocytes pre-stimulated with LPS
Assay: Hydrogen peroxide measurement in supernatants of LPS pre-stimulated astrocytes
Type: cell-based
Details: 24 h, 0.01 µM
Protocol: as §1
At 24 h, cell supernatants were taken from the cultures used for the MTT assay. The quantitative determination of H2O2 released in supernatants was performed by means of a H2O2 colorimetric kit (cat. no. ADI-907-015, Enzo Life Sciences, Inc., Farmingdale, NY, USA). Then, 50 µL of supernatant/well was used and 100 µL of color reagent was added in each well. Next, wells were mixed and afterwards incubated for 30 min at r.t. The OD was measured following the manufacturer’s instructions.

SMILES	H2O2 generation
C#CCOc1ccc2ccc(=O)oc2c1 [Compound 5, 7-(Prop-2-ynyloxy)-2H-chromen-2-one]	restoring it to the untreated control levels
CCC#CCOc1ccc2ccc(=O)oc2c1 [Compound 7, 7-(Pent-2-yn-1-yloxy)-2H-chromen-2-one]	restoring it to the untreated control levels; also recorded: strong reduction in H2O2 release

Same assay, conditions: 24 h, 150 µM

SMILES	H2O2 generation
CC#CCOc1ccc2ccc(=O)oc2c1 [Compound 6, 7-(But-2-yn-1-yloxy)-2H-chromen-2-one]	restoring it to the untreated control levels
